Results reported in patent publication US11976062B2, “Benzisoxazole compound” (OSAKA UNIVERSITY, priority 2018, dated 2024).

Biological target: T1, TRPC6 channel (Homo sapiens, UniProt Q9Y210)
T1 construct: expressed in transfected cells; host or cells: HEK293
T1 sequence (Q9Y210 1-931): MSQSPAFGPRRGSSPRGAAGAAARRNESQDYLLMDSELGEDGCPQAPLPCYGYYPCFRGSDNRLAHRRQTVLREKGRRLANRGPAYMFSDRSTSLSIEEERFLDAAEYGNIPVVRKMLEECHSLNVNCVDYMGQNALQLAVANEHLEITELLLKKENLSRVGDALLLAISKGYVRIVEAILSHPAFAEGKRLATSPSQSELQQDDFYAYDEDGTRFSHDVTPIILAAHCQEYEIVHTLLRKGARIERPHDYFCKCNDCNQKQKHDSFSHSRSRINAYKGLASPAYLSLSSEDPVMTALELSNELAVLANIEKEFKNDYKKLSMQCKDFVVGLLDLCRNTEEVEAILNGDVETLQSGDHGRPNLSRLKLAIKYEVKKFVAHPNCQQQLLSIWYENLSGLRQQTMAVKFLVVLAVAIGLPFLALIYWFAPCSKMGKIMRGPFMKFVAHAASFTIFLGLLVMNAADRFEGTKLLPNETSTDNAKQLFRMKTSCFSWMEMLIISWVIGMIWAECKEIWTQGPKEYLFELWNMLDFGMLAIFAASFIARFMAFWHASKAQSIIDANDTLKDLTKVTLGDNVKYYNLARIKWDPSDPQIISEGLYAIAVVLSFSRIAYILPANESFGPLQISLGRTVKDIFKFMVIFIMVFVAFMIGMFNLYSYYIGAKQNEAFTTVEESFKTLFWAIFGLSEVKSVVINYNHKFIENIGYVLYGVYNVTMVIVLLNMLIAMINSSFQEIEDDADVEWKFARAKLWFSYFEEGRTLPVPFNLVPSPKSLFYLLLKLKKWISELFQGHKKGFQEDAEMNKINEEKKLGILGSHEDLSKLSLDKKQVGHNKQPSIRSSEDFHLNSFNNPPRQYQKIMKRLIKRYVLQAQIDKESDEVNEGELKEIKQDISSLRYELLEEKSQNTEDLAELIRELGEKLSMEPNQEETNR
Experiment: Electrophysiological evaluation (whole-cell patch) using HEK293 cells transiently expressing TRPC6 channel
Assay type: cell-based
Conditions: 30 μM for 30 seconds, carbachol 100 μM, holding potential −50 mV
Method: Evaluation was performed using TRPC6-expressing cells cultured in the same manner as in Test Example 1. The transfected cells were placed in a chamber set in a microscope, and TRPC6 current was measured with a patch glass electrode (5 to 10 MΩ) in whole-cell mode. The extracellular solution and intracellular solution used in this evaluation are listed below.
Extracellular Solution: 140 mM NaCl, 5 mM KCl, 1 mM CaCl2, 1.2 mM MgCl2, 10 mM Glucose, 10 mM HEPES (pH 7.4)
Intracellular Solution: 120 mM CsOH, 120 mM Aspartate, 20 mM CsCl, 2 mM MgCl2, 1.5 mM CaCl2, 5 mM EGTA, 10 mM Glucose, 10 mM HEPES, 2 mM ATP-Na, 0.1 mM GTP (pH 7.4)
The holding potential was fixed at −50 mV. TRPC current was evoked by adding carbachol (100 μM) to the cells. Evaluation was performed on the change in current caused by adding 30 μM of a test compound (compound 011) to the cells for 30 seconds after 20 seconds from the addition of carbachol.

O=C(O)c1cnc(N2CCN(c3noc4cccc(C(F)(F)F)c34)CC2)c(Cl)c1 [Compound 011, 5-chloro-6-(4-(4-(trifluoromethyl)benzo[d]isoxazol-3-yl)piperazin-1-yl) nicotinic acid]
change in TRPC6 current evoked by carbachol: significant decrease in the amount of current
